Key:
[1] = cited from earlier work
[2] = dose-response meta-analysis; cited from earlier work
[3] = Therapeutic drug monitoring: steady-state trough serum sertraline concentration
[4] = Female, Adults, median (1st quartile, 3rd quartile), listed as sertraline

CN[C@H]1CC[C@@H](c2ccc(Cl)c(Cl)c2)c2ccccc21 [Sertraline]
reference range of serum concentration ([1]; children and adolescents, TDM-VIGIL study): 66 to 76 ng/mL | coefficient of variation of concentration ([1]; interindividual pharmacokinetic variability): 59% | effective daily range [2]: 50 to 150 mg | C/D (dose-adjusted serum concentration) ([3]; Adults, median (1st quartile, 3rd quartile)): 0.50 (0.33, 0.71) (ng/ml)/(mg/d) | C/D (dose-adjusted serum concentration) ([3]; Adults, median (1st quartile, 3rd quartile), listed as sertraline): 0.50 (ng/ml)/(mg/d) | C/D (dose-adjusted serum concentration) ([3]; Children and Adolescents, median (1st quartile, 3rd quartile)): 0.44 (0.31, 0.67) (ng/ml)/(mg/d) | C/D (dose-adjusted serum concentration) ([3]; Children and Adolescents, median (1st quartile, 3rd quartile), listed as sertraline): 0.44 (ng/ml)/(mg/d) | Serum Concentration ([3]; Female, Adults, median (1st quartile, 3rd quartile)): 62.3 (33.5, 102.0) ng/mL | C/D [3, 4]: 0.51 (ng/ml)/(mg/d) | Serum Concentration [3, 4]: 62.3 ng/mL | Serum Concentration ([3]; Female, Children and Adolescents, median (1st quartile, 3rd quartile)): 53.2 (32.4, 86.2) ng/mL | Serum Concentration ([3]; Female, Total, median (1st quartile, 3rd quartile)): 57.0 (32.9, 95.5) ng/mL | Serum Concentration ([3]; Male, Adults, median (1st quartile, 3rd quartile)): 55.8 (35.0, 86.0) ng/mL | Serum Concentration ([3]; Male, Adults, median (1st quartile, 3rd quartile), listed as sertraline): 55.8 ng/mL | Serum Concentration ([3]; Male, Children and Adolescents, median (1st quartile, 3rd quartile)): 41.8 (23.9, 65.5) ng/mL | Serum Concentration ([3]; Male, Total, median (1st quartile, 3rd quartile)): 52.4 (31.6, 81.3) ng/mL | C/D (dose-adjusted serum concentration) ([3]; Total, median (1st quartile, 3rd quartile)): 0.47 (0.32, 0.69) (ng/ml)/(mg/d) | Coefficient of variation (CV) of C/D value ([3]; adults, interindividual): 61.1% | Coefficient of variation (CV) of sertraline concentration ([3]; adults, interindividual): 68.0% | Coefficient of variation (CV) of C/D value ([3]; younger patients (children and adolescents), interindividual): 80.6%
